Test results as given in the supplement of paper PMC10307832.

compound: NCC(=O)Nc1ccc(-n2nc(C(F)(F)F)cc2-c2ccc3c(ccc4ccccc43)c2)cc1 + C[C@]1(O)C[C@@H](c2nc(-c3ccc4ccc(-c5ccccc5)nc4c3)c3c(N)nccn32)C1 [Linsitinib] (partner 1 µM); assay: relative viability (nuclei count vs DMSO), 5 days (fraction); higher = more cells survive; conditions: first compound 0.02 µM
In short: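 Relative viability divides the nuclei count in treated wells by that in vehicle wells. Lung cancer cell lines were seeded in 1536-well plates, dosed by pin tool the next day, and fixed and stained after 5 days in one step with final 0.05% Triton X-100, 1% formaldehyde and 1 ug/ml Hoechst. Dosing was a single drug or a fixed anchor-drug dose plus five library-drug doses (not always all listed) in √10 steps, and values are medians of duplicate plates imaged at 4×.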

Cell Line	relative viability
NCI-H2009	1.22
A-427	1.12
NCI-H441	0.634
NCI-H661	0.573
NCI-H1734	0.916
NCI-H460	0.823
NCI-H2347	0.953
SK-LU-1	1.16
NCI-H1395	0.997
201T	0.957
NCI-H1915	1.05
HCC-827	0.93
LXF-289	0.924
NCI-H23	0.484
NCI-H647	1.23
CAL-12T	0.718
NCI-H1651	0.945
EPLC-272H	1.38

Cell Line	relative viability
NCI-H2228	0.872
NCI-H1792	0.507
NCI-H1355	0.769
NCI-H3122	1.06
NCI-H1437	0.944
NCI-H1755	1.08
NCI-H2023	0.805
HCC-15	0.865
NCI-H1793	0.826
PC-14	1.07
EKVX	1.04
LC-2-ad	0.996
NCI-H1944	1.14
NCI-H1975	0.927
RERF-LC-KJ	0.923
NCI-H358	0.807
NCI-H650	0.638

same assay, conditions: first compound 0.06325 µM

Cell Line	relative viability
NCI-H2009	1.18
A-427	1.17
NCI-H441	0.486
NCI-H661	0.584
NCI-H1734	0.856
NCI-H460	0.757
NCI-H2347	0.98
SK-LU-1	1.1
NCI-H1395	0.986
201T	1.01
NCI-H1915	1.07
HCC-827	0.972
LXF-289	0.995
NCI-H23	0.582
NCI-H647	1.25
CAL-12T	0.836
NCI-H1651	1.05
EPLC-272H	1.06

Cell Line	relative viability
NCI-H2228	0.676
NCI-H1792	0.647
NCI-H1355	0.855
NCI-H3122	1.09
NCI-H1437	1.05
NCI-H1755	1.01
NCI-H2023	0.682
HCC-15	0.871
NCI-H1793	0.799
PC-14	0.917
EKVX	1.06
LC-2-ad	0.94
NCI-H1944	1.21
NCI-H1975	0.92
RERF-LC-KJ	0.84
NCI-H358	0.8
NCI-H650	1.01

same assay, conditions: first compound 0.2 µM

Cell Line	relative viability
NCI-H2009	1.23
A-427	1.16
NCI-H441	0.509
NCI-H661	0.582
NCI-H1734	0.988
NCI-H460	0.855
NCI-H2347	1.04
SK-LU-1	1.5
NCI-H1395	1.15
201T	1.09
NCI-H1915	1.17
HCC-827	1
LXF-289	0.989
NCI-H23	0.662
NCI-H647	1.12
CAL-12T	0.865
NCI-H1651	0.963
EPLC-272H	1.18

Cell Line	relative viability
NCI-H2228	0.707
NCI-H1792	0.549
NCI-H1355	0.849
NCI-H3122	1.03
NCI-H1437	1.07
NCI-H1755	0.98
NCI-H2023	0.712
HCC-15	0.897
NCI-H1793	0.893
PC-14	1.05
EKVX	0.987
LC-2-ad	0.876
NCI-H1944	1.16
NCI-H1975	0.973
RERF-LC-KJ	0.9
NCI-H358	0.72
NCI-H650	1.02

same assay, conditions: first compound 0.6325 µM

Cell Line	relative viability
NCI-H2009	1.21
A-427	1.02
NCI-H441	0.657
NCI-H661	0.496
NCI-H1734	0.823
NCI-H460	0.717
NCI-H2347	1.07
SK-LU-1	1.15
NCI-H1395	1.06
201T	1.09
NCI-H1915	1.09
HCC-827	0.956
LXF-289	0.985
NCI-H23	0.476
NCI-H647	1.31
CAL-12T	0.775
NCI-H1651	1.01
EPLC-272H	1.22

Cell Line	relative viability
NCI-H2228	0.603
NCI-H1792	0.625
NCI-H1355	0.867
NCI-H3122	1.04
NCI-H1437	1.1
NCI-H1755	0.991
NCI-H2023	0.623
HCC-15	0.891
NCI-H1793	0.966
PC-14	0.936
EKVX	1.01
LC-2-ad	0.852
NCI-H1944	1.11
NCI-H1975	0.983
RERF-LC-KJ	0.857
NCI-H358	0.868
NCI-H650	0.862

same assay, conditions: first compound 2 µM

Cell Line	relative viability
NCI-H2009	1.12
A-427	1.03
NCI-H441	0.668
NCI-H661	0.566
NCI-H1734	0.925
NCI-H460	0.738
NCI-H2347	1.01
SK-LU-1	1.15
NCI-H1395	1.18
201T	1.04
NCI-H1915	1.1
HCC-827	0.958
LXF-289	0.901
NCI-H23	0.552
NCI-H647	0.915
CAL-12T	0.819
NCI-H1651	1.01
